Source: US9284283B2, “Macrocyclic compounds for modulating IL-17” (ENSEMBLE THERAPEUTICS CORPORATION, priority 2012, dated 2016)

Target: T1, biotinylated human IL-17 (binding to IL17R/Fc) (Homo sapiens, UniProt Q16552)
T1 construct: purchased R&D Systems 317-ILB (IL-17, biotinylated); 177-IR (IL17R/Fc)
T1 sequence (Q16552 20-155 limits assumed): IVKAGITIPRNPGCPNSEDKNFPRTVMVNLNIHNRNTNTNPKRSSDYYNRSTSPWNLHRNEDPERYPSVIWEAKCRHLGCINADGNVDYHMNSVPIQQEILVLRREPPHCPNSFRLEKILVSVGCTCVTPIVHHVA
Assay: IL-17 competition ELISA II (captured IL17R/Fc, biotinylated IL-17)
Protocol: In this version, a high binding 96-well plate (Costar #9018) was coated with 20 nM of goat anti-human IgG (KPL 01-10-02) in PBS, 100 μL/well, for 30 min at 37° C. followed by 5 min at 4° C. The plate was then washed in PBST (PBS/0.05% Tween-20) on a plate washer, (BioTek ELx450) then blocked with protein-free blocking buffer (Thermo Scientific #37573) in 250 μL/well for 30 min on a shaker at room temperature, and then washed again. IL17R/Fc (R&D Systems #177-IR; 10 nM in PBST, 100 μL/well) was then added to all wells. The plate was then incubated for 30 minutes at room temperature on the shaker.
While the receptor capture step was underway, compound dilutions were prepared in PBST to a concentration of 1 μM in 1.5 mL tubes. After the receptor capture step, the plate was washed and 50 μL PBST was added to the wells in row B down to row H. Then, 62.5 μL of the 1 μM compound dilutions were added to the wells of row A. From row A, 12.5 μL of the compound solution was removed and added to row B with mixing and this process of 5-fold dilutions was continued, by row, to row G. One of the wells in row A received only PBST (62.5 μL) and this dilution series served as the no competitor control. Then, going up from row G to row A, 50 μL of b-IL-17 (biotinylated human IL-17, R&D Systems #317-ILB; 20 nM) was added to all wells. Row H received 50 μL of PBST and served as the blank row, i.e., no compound and no b-IL-17. The plate was then incubated for 30 minutes at room temperature on the shaker.
After the wash, 100 μL Streptavidin-Horseradish Peroxidase (SA-HRP) (KPL #14-30-00) at 25 ng/mL in PBST was added to each well in the plate and the plate incubated for 30 minutes at room temperature followed by wash and 100 μL SureBlue™ TMB (KPL #52-00-03). After sufficient color development (approx 3-6 minutes), the reaction was fixed by the addition of 100 μL/well 0.5 N HCl and absorbance was measured at 450 nm on a BioTek Synergy 2 plate reader. The absorbances of ‘no competitor’ control and blank control should not exceed 1.5 A.U. and 0.06 A.U., respectively.
Data was processed using BioAssay Enterprise v10.1.4 (CambridgeSoft) software. Linear OD λ450 were plotted against log concentration (x) and fitted to a 4-parameter logistic equation. IC50 was calculated using positive ‘no competitor’ control data as an upper limit and blank control as a lower limit in each assay.

| SMILES | IC50 [nM] |
| --- | --- |
| CN1CCNC(=O)CC2(CCCC2)CC(=O)N(C)[C@H](Cc2ccc(NC(=O)[C@H](Cc3ccccc3)N(C)C(=O)c3ccccc3)cc2)C(=O)N2CCC[C@H]2C(=O)NCC1 [Compound 371] | 1000 to 10000 |
| CN1CCNC(=O)CC2(CCCC2)CC(=O)N[C@H](Cc2ccc(NC(=O)[C@H](Cc3ccccc3Cl)NC(=O)Cc3ccccc3)cc2)C(=O)N[C@H](Cc2ccccc2)C(=O)N(C)CC1 [Compound 416] | < 100 |
| O=C1CNC(=O)[C@@H](Cc2ccc(NC(=O)[C@H](Cc3ccccc3Cl)NCc3ccccc3)cc2)NC(=O)CC2(CCCC2)CC(=O)NCCCCCN1 [Compound 503] | 1000 to 10000 |
| CC(C)(C)[C@H]1NC(=O)[C@@H](Cc2ccc(NC(=O)[C@H](Cc3ccccc3Cl)NC(=O)C3(c4ccc(F)cc4)CC3)cc2)NC(=O)CC2(CCCC2)CC(=O)NCCCCCNC1=O [Compound 471] | 100 to 1000 |
| O=C1CC2(CCCC2)CC(=O)N[C@H](Cc2ccc(NC(=O)[C@H](Cc3ccccc3Cl)NC(=O)c3cccnc3)cc2)C(=O)NCCCCN1 [Compound 420] | 100 to 1000 |
| O=C1CC2(CCCC2)CC(=O)N[C@H](Cc2ccc(NC(=O)[C@H](Cc3ccccc3Cl)NC(=O)Cc3ccc(CO)cc3)cc2)C(=O)NCCCCCN1 [Compound 394] | < 100 |
| O=C1CC2(CCCC2)CC(=O)N[C@H](Cc2ccc(NC(=O)[C@@H](NC(=O)c3cccnc3)C3CCCCC3)cc2)C(=O)NCCOCCOCCN1 [Compound 417] | 100 to 1000 |
| CN1CCNC(=O)CC2(CCCC2)CC(=O)N[C@H](Cc2ccc(NC(=O)[C@H](Cc3ccccc3Cl)NC(=O)Cc3cccc(O)c3)cc2)C(=O)NCC1 [Compound 467] | < 100 |
| O=C1CC2(CCCC2)CC(=O)N[C@H](Cc2ccc(NC(=O)[C@@H](NC(=O)Cc3cccc(O)c3)c3ccccc3)cc2)C(=O)NCCOCCOCCN1 [Compound 481] | 100 to 1000 |
| O=C1CNC(=O)[C@@H](Cc2ccc(-n3c(C(F)(F)F)nc(Cc4ccccc4Cl)c3OC(=O)C(F)(F)F)cc2)NC(=O)CC2(CCCC2)CC(=O)NCCCCCN1 [Compound 440] | 100 to 1000 |
| Cc1ccc(C[C@H](NC(=O)C2(c3ccc(F)cc3)CC2)C(=O)Nc2ccc(C[C@H]3NC(=O)CC4(CCCC4)CC(=O)NCCOCCOCCNC3=O)cc2)c(C)c1 [Compound 510] | 100 to 1000 |
| O=C1CC2(CCCC2)CC(=O)N[C@H](Cc2ccc(NC(=O)[C@H](Cc3ccccc3C(F)(F)F)NC(=O)C3(c4ccc(F)cc4)CC3)cc2)C(=O)NCCOCCOCCN1 [Compound 508] | 100 to 1000 |
| CN1CCCCCNC(=O)[C@@H](C(C)(C)C)NC(=O)[C@@H](Cc2ccc(NC(=O)[C@H](Cc3ccccc3Cl)NC(=O)Cc3cccc(O)c3)cc2)NC(=O)CC2(CCCC2)CC1=O [Compound 462] | < 100 |
| CN1CCNCCOC(=O)CC2(CCCC2)CC(=O)N(C)[C@H](Cc2ccc(NC(=O)[C@H](Cc3ccccc3Cl)NC(=O)Cc3ccccc3)cc2)C(=O)N[C@H](Cc2ccccc2)C1=O [Compound 426] | 100 to 1000 |
| CN1C(=O)CC2(CCCC2)CC(=O)NCCOCCOCCNC(=O)[C@H]1Cc1ccc(NC(=O)[C@H](Cc2ccccc2Cl)NC(=O)C2(c3ccc(F)cc3)CC2)cc1 [Compound 504] | 100 to 1000 |
| CN1CCNCCNC(=O)CC2(CCCC2)CC(=O)N[C@H](Cc2ccc(NC(=O)[C@H](Cc3ccccc3Cl)NC(=O)Cc3ccccc3)cc2)C(=O)N[C@H](Cc2ccccc2)C1=O [Compound 433] | < 100 |
| CN1C(=O)CC2(CCCC2)CC(=O)NCCCCCC#CCNC(=O)[C@H]1Cc1ccc(NC(=O)[C@H](Cc2ccccc2Cl)NC(=O)C2(c3ccc(F)cc3)CC2)cc1 [Compound 491] | 1000 to 10000 |
| O=C1CC2(CCCC2)CC(=O)N[C@H](Cc2ccc(NC(=O)[C@@H](NC(=O)c3cccnc3)C3CCCCC3)cc2)C(=O)NCCCCN1 [Compound 409] | 100 to 1000 |

Continued, values first:

| IC50 [nM] | SMILES |
| --- | --- |
| 100 to 1000 | O=C1CC2(CCCC2)NC(=O)CCCCNC(=O)[C@@H](Cc2ccc(NC(=O)[C@H](Cc3ccccc3Cl)NC(=O)C(F)(F)c3ccccc3)cc2)N1 [Compound 652] |
| < 100 | COC(=O)N[C@@H](Cc1ccccc1Cl)C(=O)Nc1ccc(C[C@H]2NC(=O)CC3(CCCC3)CC(=O)N(C)CCOCCN(C)C(=O)[C@@H](C)NC2=O)cc1 [Compound 569] |
| < 100 | C[C@H]1NC(=O)[C@@H](Cc2ccc(NC(=O)[C@@H](Nc3nc4ccccc4o3)C3CCCCC3)cc2)NC(=O)CC2(CCCC2)CC(=O)NCCCCCNC1=O [Compound 664] |
| 100 to 1000 | O=C1CC2(CCCC2)CC(=O)N[C@H](Cc2ccc(NC(=O)[C@H](Cc3ccccc3Cl)NC(=O)Cc3ccc(F)cc3)cc2)C(=O)NCCN2CCN(CCN1)CC2 [Compound 532] |
| < 100 | O=C1CC2(CCCC2)CC(=O)N[C@H](Cc2ccc(NC(=O)[C@@H](NC(=O)C(F)(F)c3ccccc3)C3CCCCC3)cc2)C(=O)NCCOCCOCCN1 [Compound 595] |
| 100 to 1000 | O=C1CC2(CCCC2)CC(=O)N[C@H](Cc2ccc(NC(=O)[C@H](Cc3ccccc3Cl)NC(=O)c3ccc(F)cc3O)cc2)C(=O)NCCOCCOCCN1 [Compound 538] |
| < 100 | CN(C)c1ccc(CC(=O)N[C@H](C(=O)Nc2ccc(C[C@H]3NC(=O)CC4(CCCC4)CC(=O)NCCOCCOCCNC3=O)cc2)C2CCCCC2)cc1 [Compound 596] |
| < 100 | CN1CCOCCN(C)C(=O)[C@@H](Cc2ccccn2)NC(=O)[C@@H](Cc2ccc(NC(=O)[C@H](Cc3ccccc3Cl)NC(=O)C(F)(F)c3ccccc3)cc2)NC(=O)CC2(CCCC2)CC1=O [Compound 637] |
| < 100 | C[C@H]1NC(=O)[C@@H](Cc2ccc(NC(=O)[C@H](Cc3ccccc3Cl)NC(=O)Cc3ccc(F)cc3)cc2)N(C)C(=O)CC2(CCCC2)CC(=O)NCCCCCN(C)C1=O [Compound 518] |
| < 100 | O=C1CC2(CCCC2)CC(=O)N[C@H](Cc2ccc(NC(=O)[C@H](Cc3ccccc3Cl)NC(=O)c3ccccc3O)cc2)C(=O)NCCOCCOCCN1 [Compound 537] |
| < 100 | CN1CCOCCOCCNC(=O)[C@@H](Cc2ccc(NC(=O)[C@H](CC3CCC3)NC(=O)Cc3ccc(N(C)C)cc3)cc2)NC(=O)CC2(CCCC2)CC1=O [Compound 616] |
| 100 to 1000 | CCC(F)(F)C(=O)NC(C(=O)Nc1ccc(CC2NC(=O)CC3(CCCC3)CC(=O)OCCCCCN(C)C(=O)CNC2=O)cc1)C1CCCCC1 (stereo not shown) [Compound 680] |
| < 100 | C[C@H]1NC(=O)[C@@H](Cc2ccc(NC(=O)[C@@H](NC(=O)C(F)(F)c3ccccc3)C3CCCCC3)cc2)NC(=O)CC2(CCCC2)CC(=O)N(C)CCN(C)CCN(C)C1=O [Compound 604] |
| < 100 | COC(=O)N[C@@H](Cc1ccccc1Cl)C(=O)Nc1ccc(C[C@H]2NC(=O)CC3(CCCC3)CC(=O)N(C)CCOCCOCCNC2=O)cc1 [Compound 568] |
| < 100 | C[C@H]1NC(=O)[C@@H](Cc2ccc(NC(=O)[C@H](Cc3ccccc3Cl)NC(=O)Cc3ccc(F)cc3)cc2)NC(=O)CC2(CCCC2)NC(=O)CCCCCNC1=O [Compound 617] |
| < 100 | O=C1CNC(=O)[C@H](Cc2ccc(NC(=O)[C@H](Cc3ccccc3Cl)NC(=O)Cc3ccccc3)cc2)NC(=O)CC2(CCCC2)CC(=O)NCCCCCN1 [Compound 519] |
| < 100 | CC(C)OC(=O)N[C@@H](Cc1ccccc1Cl)C(=O)Nc1ccc(C[C@H]2NC(=O)CC3(CCCC3)CC(=O)NCCOCCOCCNC2=O)cc1 [Compound 580] |
| > 10000 | C[C@H]1NC(=O)[C@@H](CCCNC(=O)[C@H](Cc2ccccc2Cl)NC(=O)C(F)(F)c2ccccc2)NC(=O)CC2(CCCC2)CC(=O)NCCCCCNC1=O [Compound 608] |
| < 100 | CN1CCCCCN(C)C(=O)[C@@H](Cc2ccncc2)NC(=O)[C@@H](Cc2ccc(NC(=O)[C@H](Cc3ccccc3Cl)NC(=O)Cc3cccnc3)cc2)NC(=O)CC2(CCCC2)CC1=O [Compound 629] |
| < 100 | C[C@H]1NC(=O)[C@@H](Cc2ccc(NC(=O)[C@H](Cc3ccccc3Cl)NC(=O)Cc3cccnc3)cc2)NC(=O)CC2(CCCC2)CC(=O)N(C)CCCCCN(C)C1=O [Compound 628] |
| 100 to 1000 | C[C@H]1NC(=O)[C@@H](Cc2ccc(NC(=O)[C@H](Cc3ccccc3Cl)NC(=O)Cc3ccc(F)cc3)cc2)NC(=O)CC2(CCOCC2)NC(=O)CCCCCCNC1=O [Compound 622] |
| < 100 | C[C@H]1NC(=O)[C@@H](Cc2ccc(NC(=O)[C@H](Cc3ccccc3Cl)NC(=O)Cc3ccc(F)cc3)cc2)NC(=O)CC2(CC2)CC(=O)NCCCCCNC1=O [Compound 554] |
